Source: patent publication US11833137B2, “Substituted chromenones, IRE1 inhibitors, and methods of using same” (The Wistar Institute, priority 2018, dated 2023)

Legend:
MEC2 cells = settings: cited from earlier work
[1] = system: Arg-1 in CD11b+/Ly6G+ granulocytic MDSCs; experiment: Arg-1 expression in granulocytic MDSCs of treated mice; format: in vivo, mouse; settings: spleens of injected MD4+/−/Eμ-TCL1+/+ mice
CLL cells in PBMCs = experiment: CLL burden in B-I09-injected MD4+/−/Eμ-TCL1+/+ mice; format: in vivo, mouse; settings: 50 mg/kg intraperitoneally, days 1-5 and 8-12
Procedure: FIGS. 24A-24J illustrate the finding that targeting XBP-1s in CLL cells of MD4^+/−/Eμ-TCL1^+/+ mice leads to reduced production of sIgM, and decreased numbers and function of granulocytic MDSCs. (FIG. 24A) The levels of IgM in the sera of MD4^+/−/Eμ-TCL1^+/+ and XBP-1^KO/MD4^+/−/Eμ-TCL1^+/+ mice were determined by ELISA. (FIG. 24B) Blood cells collected from MD4^+/−/Eμ-TCL1^+/+ and XBP-1^KO/MD4^+/−/Eμ-TCL1^+/+ mice were treated with RBC lysis buffer, and stained with CD11c-BV421, CD11b-PE, Ly6C-Alexa 488 and Ly6G-Alexa 647. Gated CD11c−/CD11b+ populations were analyzed for Ly6C^intermediate/Ly6G+ granulocytic MDSCs and Ly6C+/Ly6G− monocytic MDSCs. […] Gated CD11b+/Ly6C^intermediate/Ly6G+ granulocytic MDSCs were analyzed for the expression of Arg-1. (FIG. 24F) Mean fluorescence intensity (MFI) of Arg-1 in gated CD11b+/Ly6C^intermediate/Ly6G+ granulocytic MDSCs from spleens of 5 MD4^+/−/Eμ-TCL1^+/+ and 5 XBP-1^KO/MD4^+/−/Eμ-TCL1^+/+ mice was plotted as mean±SEM. […] The ^3H-thymidine uptake was measured, and the percentages of proliferation were calculated by comparing to the positive control and plotted as mean±SEM. […] The percentage of CLL cells in PBMCs for each mouse was determined by flow cytofluorometry on day 6 and day 13, and compared with the CLL burden data of the mouse on day 0 (100%). […]

[2] = system: XBP-1s expression, CD5+ CLL cells from Eμ-TCL1 mice; settings: cited from earlier work

For O=c1oc2c(C3OCCCO3)c(O)ccc2c2c1CNCC2 [Compound 4, 7-(1,3-dioxan-2-yl)-8-hydroxy-1,2,3,4-tetrahydro-5H-chromeno[3,4-c]pyridin-5-one], which “sensitivity of MEC2 cells” value (MEC2 cells) is on record?
The value was “less sensitive”.

What about the “Arg-1 levels in granulocytic MDSCs versus DMSO-injected mice” value [1] of the same compound?
Its value is “expressed decreased levels of Arg-1”.

And the “CLL burden in peripheral blood” value (CLL cells in PBMCs)?
The value was “leukemic regression was observed”.

What about the “expression of XBP-1s in CLL cells” value [2] of the same compound?
The value was “can inhibit the expression of XBP-1s in CLL cells”.
